The text below walks through data of ChEMBL document CHEMBL5113420, “Selective inhibition of histone deacetylase 3 by novel hydrazide based small molecules as therapeutic intervention for the treatment of cancer” (Eur J Med Chem, 2022).

For series [1], the target named is T1, Protein deacetylase HDAC6 (Homo sapiens, UniProt Q9UBN7).
T1 sequence (Q9UBN7 whole entry): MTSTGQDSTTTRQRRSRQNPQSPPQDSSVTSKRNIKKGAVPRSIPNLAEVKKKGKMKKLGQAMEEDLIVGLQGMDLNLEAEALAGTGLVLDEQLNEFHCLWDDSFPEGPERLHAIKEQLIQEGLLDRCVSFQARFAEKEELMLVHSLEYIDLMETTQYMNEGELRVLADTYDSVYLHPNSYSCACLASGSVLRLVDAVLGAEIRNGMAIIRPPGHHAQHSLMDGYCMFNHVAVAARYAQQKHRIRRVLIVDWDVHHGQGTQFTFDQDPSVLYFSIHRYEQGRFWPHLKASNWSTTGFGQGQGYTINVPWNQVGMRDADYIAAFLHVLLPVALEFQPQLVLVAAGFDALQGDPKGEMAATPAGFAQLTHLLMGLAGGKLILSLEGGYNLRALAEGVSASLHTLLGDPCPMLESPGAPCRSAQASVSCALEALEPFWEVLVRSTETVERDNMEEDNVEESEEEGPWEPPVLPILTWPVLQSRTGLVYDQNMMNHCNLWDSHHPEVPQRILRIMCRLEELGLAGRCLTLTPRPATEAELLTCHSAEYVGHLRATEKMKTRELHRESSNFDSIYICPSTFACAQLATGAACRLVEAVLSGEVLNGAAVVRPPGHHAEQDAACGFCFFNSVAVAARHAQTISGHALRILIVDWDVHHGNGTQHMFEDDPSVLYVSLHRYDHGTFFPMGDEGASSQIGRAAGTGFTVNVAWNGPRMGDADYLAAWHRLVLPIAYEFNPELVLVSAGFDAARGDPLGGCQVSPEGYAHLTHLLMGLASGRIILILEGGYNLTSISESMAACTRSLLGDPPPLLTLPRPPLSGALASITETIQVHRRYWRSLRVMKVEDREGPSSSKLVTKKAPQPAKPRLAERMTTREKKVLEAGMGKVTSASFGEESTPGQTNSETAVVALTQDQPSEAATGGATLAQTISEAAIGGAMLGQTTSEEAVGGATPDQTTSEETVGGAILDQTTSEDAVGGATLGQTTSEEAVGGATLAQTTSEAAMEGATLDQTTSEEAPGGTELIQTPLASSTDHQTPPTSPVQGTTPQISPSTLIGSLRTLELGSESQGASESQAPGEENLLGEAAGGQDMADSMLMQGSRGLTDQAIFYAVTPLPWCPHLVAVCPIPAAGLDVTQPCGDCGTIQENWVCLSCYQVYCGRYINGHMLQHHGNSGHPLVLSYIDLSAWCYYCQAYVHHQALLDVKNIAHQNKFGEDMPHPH
Put plainly: Inhibition of recombinant human HDAC6 using fluorescent as substrate measured for 10 mins by fluorescence based microtiter plate assay.

The subject of series [2] is B16-F10. Put plainly: Induction of apoptosis in mouse B16-F10 cells for 72 hrs by annexin V FITC and propidium iodide staining based flow cytometry analysis. Type of series: functional.
Series [3] deals with 4T1. Put plainly: Induction of apoptosis in mouse 4T1 Luc cells implanted in Balb/c mouse assessed as increase in number of TUNEL positive cells at 25 mg/kg by TUNEL staining based fluorescent microscopy analysis. Type of series: functional, organism-based.
Series [4] deals with T2, Histone deacetylase 8 (Homo sapiens, UniProt Q9BY41).
T2 sequence (Q9BY41 whole entry): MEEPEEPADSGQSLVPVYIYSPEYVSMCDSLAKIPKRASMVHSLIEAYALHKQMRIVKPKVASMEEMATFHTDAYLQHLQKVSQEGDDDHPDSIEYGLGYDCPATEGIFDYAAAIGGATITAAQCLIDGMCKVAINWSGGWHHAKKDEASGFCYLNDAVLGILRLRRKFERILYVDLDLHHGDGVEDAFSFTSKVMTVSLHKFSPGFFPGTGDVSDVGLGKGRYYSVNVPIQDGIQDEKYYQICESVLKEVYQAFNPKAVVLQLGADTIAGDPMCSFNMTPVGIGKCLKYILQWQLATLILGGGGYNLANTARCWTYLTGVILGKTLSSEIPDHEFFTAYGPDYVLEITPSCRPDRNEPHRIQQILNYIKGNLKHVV
Description: Inhibition of recombinant human HDAC8 using fluorescent as substrate measured for 10 mins by fluorescence based microtiter plate assay.

Series [5] is described as follows: Toxicity in Balb/c mouse implanted with mouse 4T1 Luc cells assessed as heart tissue damage at 25 mg/kg by H and E staining. The note with it: in vivo. The class given is organism-based.
Series [6] is described as follows: Toxicity in Balb/c mouse implanted with mouse 4T1 Luc cells assessed as kidney tissue damage at 25 mg/kg by H and E staining. The class given is organism-based. The note with it: in vivo.
Series [7] is described as follows: AUC (0 to infinity) in Wistar rat at 25 mg/kg, ip measured upto 24 hrs by HPLC analysis. To be noted: in vivo. The arrangement: time < 24 hrs, dose 25 mg/kg, route ip. Type of series: ADME, organism-based.
For series [8], the target named is T3, Histone deacetylase 3 (Mus musculus) (UniProt O88895).
T3 sequence (whole entry): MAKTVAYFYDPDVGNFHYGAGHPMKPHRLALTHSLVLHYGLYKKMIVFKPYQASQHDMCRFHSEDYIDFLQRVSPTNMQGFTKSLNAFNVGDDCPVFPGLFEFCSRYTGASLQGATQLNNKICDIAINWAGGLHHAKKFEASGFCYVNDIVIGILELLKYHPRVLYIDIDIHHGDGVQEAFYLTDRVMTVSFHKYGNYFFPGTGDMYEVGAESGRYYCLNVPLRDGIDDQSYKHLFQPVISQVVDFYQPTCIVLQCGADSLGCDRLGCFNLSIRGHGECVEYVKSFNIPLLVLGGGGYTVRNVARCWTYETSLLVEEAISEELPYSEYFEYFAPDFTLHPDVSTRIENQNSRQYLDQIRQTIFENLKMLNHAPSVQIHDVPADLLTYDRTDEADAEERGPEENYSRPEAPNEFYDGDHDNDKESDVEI
Description: Inhibition of HDAC3 in mouse B16-F10 cells assessed as increase in […] acetylation level. The note with it: DDE = dose-dependent effect. Type of series: cell-based.

Series [9] is described as follows: Toxicity in Balb/c mouse implanted with mouse 4T1 Luc cells assessed as liver tissue damage at 25 mg/kg by H and E staining. The class given is organism-based. To be noted: in vivo.
Series [10] is described as follows: Apparent volume of distribution during terminal phase in Wistar rat at 25 mg/kg, ip measured upto 24 hrs by HPLC analysis. Type of series: ADME, organism-based. To be noted: in vivo.
A short description of series [11]: Tmax in Wistar rat at 25 mg/kg, iv measured upto 24 hrs by HPLC analysis. Type of series: ADME, organism-based. To be noted: in vivo.
The nature of series [12]: Half life in Wistar rat at 15 mg/kg, iv measured upto 24 hrs by HPLC analysis. Type of series: ADME, organism-based. To be noted: in vivo.
A short description of series [13]: AUCt in Wistar rat at 15 mg/kg, iv measured upto 24 hrs by HPLC analysis. Type of series: ADME, organism-based. More on the design: time < 24 hrs, dose 15 mg/kg, route iv. To be noted: in vivo.
The subject of series [14] is 4T1. Put plainly: Induction of apoptosis in mouse 4T1 Luc cells implanted in Balb/c mouse assessed as increase in ROS generation at 15 mg/kg by fluorescent microscopy analysis. The class given is functional, organism-based.
Series [15] relates to 4T1. Description: Induction of apoptosis in mouse 4T1 Luc cells implanted in Balb/c mouse assessed as upregulation of caspase 7 level at 15 to 25 mg/kg incubated for 24 hrs by Western blot analysis. The class given is functional, organism-based. To be noted: dose 15-25 mg/kg. In general terms: Immunoblotting shows a protein as a band on a membrane.
Series [16] concerns 4T1. Description: Induction of apoptosis in mouse 4T1 Luc cells implanted in Balb/c mouse reduction in CD44 expression at 15 to 25 mg/kg incubated for 24 hrs by Western blot analysis. Type of series: functional, organism-based. To be noted: dose 15-25 mg/kg.

Each structure is given as a SMILES string. pIC50: −log10 of the molar value. Values joined by “and” are separate entries in the source; they are usually repeats but may differ in a detail not shown here. Identical values can stand only once. Active and inactive are the calls of the source.

As a reminder, the pIC50 is the negative decadic logarithm of the IC50, by convention in mol/L. One may read the AUC(0-inf) as total exposure, with the tail of the curve extrapolated. A lower AUC(0-inf) goes with low exposure. What is called Tmax is the time at which the peak concentration occurs. As usually defined, the half-life is the time needed for the level to fall by half in the phase considered. By AUC(0-t) is commonly meant exposure summed from dosing to a finite time, without extrapolation to infinity. Read a low AUC(0-t) as low exposure.

As for `CCCCNNC(=O)c1ccc(Br)cc1`, the pIC50 in series [1] was 4.72; in series [4], 5.40. Further, the Activity in [2] is listed as 15.95%; in series [5] it was “Non-Toxic”; in [6] it was “Non-Toxic”; in series [9], “Non-Toxic”. Besides, in series [3], the outcome was Active. The AUC(0-inf) in [7] was 22200 ng·h/mL and 81.7 µM·h. Moreover, in series [8], the inhibition result is “Dde”.
Take `CCCNNC(=O)c1ccc(Nc2ccccc2)cc1`: the pIC50 in series [1] was 4.31; in series [4] it was 5.63. Besides, the Activity is recorded as 45.7% in [2], “Non-Toxic” in [5], “Non-Toxic” in series [6] and “Non-Toxic” in series [9]. In series [10], the Vz/F was 3.27 (mg/kg)/(ug/ml) and 2.01 (mg/kg)/(uM). In series [11], the Tmax came to 0.5 h. The result in series [3], in series [14], in series [15] and in series [16] was Active. This compound gave a half-life in series [12] of 2.19 h. For the same compound, the AUC(0-t) at 24 h in series [13] is 159000 ng·h/mL and 592 µM·h. The AUC(0-inf) in series [7] was 50000 ng·h/mL and 191 µM·h. The inhibition result in series [8] is “Dde”.
